Test results reported in the supplement of paper PMC10307832.

Experiments:
Assay in all cases: relative viability (nuclei count vs DMSO), 5 days (fraction); higher = more cells survive
[1] = compound: Cn1cc(-c2cnn3c(N)c(Br)c([C@@H]4CCCNC4)nc23)cn1 + CS(=O)(=O)CCNCc1ccc(-c2ccc3ncnc(Nc4ccc(OCc5cccc(F)c5)c(Cl)c4)c3c2)o1 [Lapatinib] (partner 2 µM)
In short: (§1)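 The day after seeding in 1536-well plates, lung cancer cell lines were treated by pin tool with a single drug, or with a fixed anchor-drug dose together with five library-drug doses (not always all listed) in √10 steps. After 5 days, a combined fix-and-stain solution (final 0.05% Triton X-100, 1% formaldehyde, 1 ug/ml Hoechst) was added. Nuclei counted on 4× images gave relative viability as treated counts over vehicle counts, reported as the median of duplicate plates.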

[2] = compound: Cn1cc(-c2cnn3c(N)c(Br)c([C@@H]4CCCNC4)nc23)cn1 + C[C@@H](Oc1cc(-c2cnn(C3CCNCC3)c2)cnc1N)c1c(Cl)ccc(F)c1Cl [Crizotinib] (partner 1 µM)
In short: as §1

[3] = compound: Cn1cc(-c2cnn3c(N)c(Br)c([C@@H]4CCCNC4)nc23)cn1 + Cc1cc(Nc2cc(N3CCN(C)CC3)nc(Sc3ccc(NC(=O)C4CC4)cc3)n2)n[nH]1 [Tozasertib] (partner 0.1 µM)
In short: as §1

[4] = compound: Cn1cc(-c2cnn3c(N)c(Br)c([C@@H]4CCCNC4)nc23)cn1 + Nc1ncn([C@H]2C[C@H](O)[C@@H](CO)O2)c(=O)n1 [Decitabine] (partner 2 µM)
In short: as §1

Cell Line	relative viability ([1]; first compound 0.05 µM)	relative viability ([1]; first compound 0.1581 µM)	relative viability ([1]; first compound 0.5 µM)	relative viability ([1]; first compound 1.581 µM)	relative viability ([1]; first compound 5 µM)	relative viability ([2]; first compound 0.05 µM)	relative viability ([2]; first compound 0.1581 µM)	relative viability ([2]; first compound 0.5 µM)	relative viability ([2]; first compound 1.581 µM)	relative viability ([2]; first compound 5 µM)	relative viability ([3]; first compound 0.05 µM)	relative viability ([3]; first compound 0.1581 µM)	relative viability ([3]; first compound 0.5 µM)	relative viability ([3]; first compound 1.581 µM)	relative viability ([3]; first compound 5 µM)	relative viability ([4]; first compound 0.05 µM)	relative viability ([4]; first compound 0.1581 µM)	relative viability ([4]; first compound 0.5 µM)	relative viability ([4]; first compound 1.581 µM)	relative viability ([4]; first compound 5 µM)
LC-2-ad	1.02	1.04	0.923	0.754	0.925	0.503	0.439	0.419	0.447	0.426	0.39	0.382	0.442	0.464	0.355	0.856	0.811	0.856	0.781	0.908
LCLC-97TM1	0.86	1.3	0.976	0.915	0.774	0.34	0.658	0.581	0.483	0.228	0.202	0.286	0.188	0.269	0.194	0.22	0.297	0.222	0.278	0.295
LK-2	1.01	0.878	0.823	0.757	0.605	0.23	0.216	0.188	0.243	0.232	0.196	0.17	0.162	–	0.161	0.323	0.337	0.254	0.272	0.23
LOU-NH91	0.785	0.694	0.761	0.713	0.619	0.727	0.724	0.739	0.713	0.626	0.585	0.585	0.609	0.683	0.497	0.82	0.81	0.796	0.801	0.729
LU99A	1.04	1.11	0.998	0.858	0.611	0.55	0.573	0.551	0.482	0.31	0.271	0.243	0.258	0.243	0.193	0.912	0.92	0.875	0.822	1.01
LXF-289	0.922	1.02	0.887	0.904	0.896	0.82	0.929	0.945	0.81	0.807	0.209	0.219	0.189	0.168	0.162	0.368	0.41	0.401	0.382	0.485
NCI-H23	1.08	1.23	1.02	0.825	0.267	0.444	0.534	0.437	0.322	0.183	0.247	0.878	0.399	0.311	0.179	0.295	0.278	0.362	0.267	0.269
NCI-H322M	0.488	0.585	0.621	0.493	0.512	0.874	0.962	0.884	0.785	0.576	0.468	0.315	0.406	0.359	0.294	0.617	0.706	0.65	0.635	0.44
NCI-H358	0.465	0.477	0.446	0.46	0.378	0.586	0.575	0.375	0.655	0.339	0.0994	0.103	0.0971	0.0967	0.117	0.206	0.235	0.232	0.217	0.185
NCI-H460	1.12	1.37	1.15	0.288	0.591	1.01	1.36	1.03	0.842	0.3	0.421	0.482	0.537	0.475	0.222	0.523	0.546	0.31	0.356	0.19
NCI-H520	0.819	0.685	0.649	0.705	0.707	0.743	0.821	0.694	0.601	0.589	0.471	0.397	0.41	0.444	0.342	0.528	0.543	0.57	0.527	0.306
NCI-H596	1.15	1.09	1.06	0.972	1	0.943	1.01	1.05	0.906	0.953	1.02	1.08	0.719	0.857	0.562	0.973	0.968	1.03	0.916	1.12
NCI-H647	1.43	1.22	1.17	0.497	0.275	1.27	1.33	0.883	0.675	0.232	0.329	0.312	0.0065	0.182	0.173	0.434	0.522	0.42	0.409	0.143
NCI-H650	0.802	0.831	1.03	0.652	0.503	0.778	0.708	0.706	0.627	0.606	0.732	0.753	0.821	0.654	0.603	0.317	0.341	0.34	0.39	0.434
NCI-H661	0.441	0.503	0.518	0.48	0.324	1.15	1.23	1.12	1.05	0.98	0.344	0.343	0.371	0.372	0.379	0.551	0.578	0.529	0.462	0.373
NCI-H727	0.867	1.05	0.813	0.88	0.426	0.912	0.965	0.664	0.648	0.353	0.695	0.489	0.806	0.503	0.468	0.919	0.858	0.923	0.696	0.705
